What is called IC50 is the point on the concentration scale where inhibition reaches its midpoint.

We go through 11 compounds from paper PMC8839210, “Identification of Inhibitory Activities of Dietary Flavonoids against URAT1, a Renal Urate Re-Absorber: In Vitro Screening and Fractional Approach Focused on Rooibos Leaves” (Nutrients, 2022).

Molecules are shown by their SMILES.

Assay [1] has as its target T1, URAT1 (Homo sapiens, UniProt Q96S37).
T1 construct: The complete human URAT1 cDNA in pEGFP-C1; expressed in transfected cells; host or cells: 293A cells (human embryonic kidney 293-derived), transient transfection with PEI-MAX
T1 sequence (Q96S37 1-553): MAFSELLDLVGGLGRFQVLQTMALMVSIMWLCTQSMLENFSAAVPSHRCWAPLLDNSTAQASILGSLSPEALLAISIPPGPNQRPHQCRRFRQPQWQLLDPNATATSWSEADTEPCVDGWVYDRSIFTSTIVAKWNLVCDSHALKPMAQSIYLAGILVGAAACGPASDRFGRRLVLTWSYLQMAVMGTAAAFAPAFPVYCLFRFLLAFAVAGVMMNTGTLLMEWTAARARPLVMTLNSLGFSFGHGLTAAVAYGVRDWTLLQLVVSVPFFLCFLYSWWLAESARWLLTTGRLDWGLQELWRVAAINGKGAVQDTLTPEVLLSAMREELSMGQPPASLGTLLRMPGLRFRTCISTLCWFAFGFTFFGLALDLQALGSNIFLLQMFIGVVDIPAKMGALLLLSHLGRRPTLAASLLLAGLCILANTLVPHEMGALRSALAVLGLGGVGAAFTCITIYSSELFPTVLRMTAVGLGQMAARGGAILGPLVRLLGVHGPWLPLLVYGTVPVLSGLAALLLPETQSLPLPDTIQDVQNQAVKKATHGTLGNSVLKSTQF
The assay is described as follows: Urate transport assay using URAT1-expressing 293A cells. The assay is classed as cell-based. As to conditions: for remaining activity at 100 µM: 293A, authentic chemical 100 μM, mean ± S.D., n = 3, read-out: URAT1-mediated urate transport activity, % of the control; for remaining activity at 100 µM / IC50: 20 s; for IC50: [14C]-urate 5 μM, 37 °C, URAT1-expressing 293A cells, read-out: IC50 against URAT1-mediated urate transport. As to the method:
After 24 h, each vector was transiently transfected into the cells (1 μg of plasmid/5 μL of PEI-MAX/well). At 24 h after transfection, the culture medium was replaced with fresh one.
Briefly, 48 h after plasmid transfection, cells were washed twice with Buffer T2 and then pre-incubated in Buffer T2 for 15 min at 37 °C. Then, the buffer was exchanged with pre-warmed fresh Buffer T2 containing radiolabeled urate ([8-^14C]-uric acid; final concentration, 5 μM) with or without the test compound at the indicated concentrations (0, 0.3, 1, 3, 10, 30, 100, 300, or 500 μM); the cells were further incubated for 20 s at 37 °C; as vehicle control, 1% DMSO was used in this study. Subsequently, the cells were washed five times with ice-cold Buffer T2; then, the cells were lysed with 0.2 M NaOH solution (500 μL/well) on ice. The resulting lysates were neutralized with 1 M HCl solution (100 μL/well). […] Using a Pierce BCA Protein Assay Kit (Thermo Fisher Scientific, Kanagawa, Japan), protein concentration was determined. Urate transport activity was calculated as the incorporated clearance (μL/mg protein/min): (incorporated level of urate [DPM/mg protein/min]/urate level in the incubation mixture [DPM/μL]). URAT1-dependent urate transport activity was calculated by subtracting the urate transport activity of mock (control) cells from that of URAT1-expressing cells.
Urate uptake was examined in the presence of several concentrations of each test compound to determine their IC50 values. Then, URAT1-mediated transport activities were expressed as a percentage of the control (100%).

On the set-up of assay [2]: method as in PMID 26785820. As to conditions: healthy males, four weeks, cited from earlier work.
Assay [3] relates to xanthine oxidoreductase (XOD). The note with it: cited from earlier work.
Assay [4] deals with T1, URAT1. As to conditions: cited from earlier work.

As to `O=c1c(O)c(-c2ccc(O)c(O)c2)oc2cc(O)ccc12` [Fisetin], in assay [1], the remaining activity at 100 µM was less than 50% and the IC50 was 7.5 µM.
On to `O=c1c(-c2ccc(O)cc2)coc2cc(O)cc(O)c12` [Genistein], for which, in assay [1], the remaining activity at 100 µM was less than 50% and the IC50 was determined as 101 µM.
The corresponding values for `O=c1c(O)c(-c2ccc(O)c(O)c2)oc2c(O)c(O)cc(O)c12` [Gossypetin] are less than 50% and 31.3 µM.
In the case of `O=c1cc(-c2ccc(O)c(O)c2)oc2cc(O)cc(O)c12` [Luteolin], in assay [1], the remaining activity at 100 µM is less than 50% and the IC50 turned out to be 25.7 µM.
As for `O=c1c(O)c(-c2cc(O)c(O)c(O)c2)oc2cc(O)cc(O)c12` [Myricetin], in assay [1], the remaining activity at 100 µM is less than 50% and the IC50 amounted to 18.1 µM.
The corresponding values for `O=c1c(O)c(-c2ccc(O)c(O)c2)oc2cc(O)c(O)c(O)c12` [Quercetagetin] are less than 50% and 18.4 µM.
For the compound `O=c1c(O)c(-c2ccc(O)c(O)c2)oc2cc(O)cc(O)c12` [Quercetin], in assay [1] (300 μM, experimentally maximum concentration), the “Effect on URAT1-mediated urate transport (in words)” value is “inhibited URAT1”. For the same compound, the IC50 in assay [1] was 12.6 µM. In addition, the “Plasma uric acid concentration, mean difference” value in assay [2] (500 mg quercetin daily as single tablet, mean plasma uric acid 5.5 mg/dL) is -0.45 mg/dL. The “Urinary uric acid output over 24 h (24 h-UUA), before vs after treatment” value in assay [2] (500 mg quercetin daily) was “no significant difference”. Further, the “XOD inhibition (in words)” value in assay [3] is given as “inhibitory activity”.
Regarding `O=C(CCc1ccc(O)c(O)c1)c1c(O)cc(O)c([C@@H]2O[C@H](CO)[C@@H](O)[C@H](O)[C@H]2O)c1O` [aspalathin, reference compound], in assay [3], the “XOD inhibition (in words)” value was “inhibits XOD”.
For `O=c1c(O)c(-c2ccc(O)cc2O)oc2cc(O)cc(O)c12` [morin, Morin], the remaining activity at 100 µM in assay [1] was less than 50%. The “URAT1 inhibition (in words)” value in assay [4] (previous report) is “URAT1 inhibitor”.
As for `O=C(/C=C/c1ccc(O)cc1)c1c(O)cc(O)cc1O` [naringenin chalcone, Naringenin chalcone], the remaining activity at 100 µM in assay [1] was less than 50%.
For `O=C1C[C@@H](c2ccc(O)cc2)Oc2cc(O)cc(O)c21` [naringenin, reference compound], the “URAT1-mediated urate transport activity, % of the control” value in assay [4] (100 μM, previous study of the authors) was 17.9 ± 7.7%.
